Results: paper PMC11790914, “Chemogenomics for steroid hormone receptors (NR3)” (Communications Chemistry, 2025)
Values joined by “and” are separate entries in the source; they are usually repeats but may differ in a detail not shown here. Equal values may be shown once.

Legend:
[1] = system: HEK293T cells; experiment: Cytotoxicity: necrosis induction (red fluorescent dye for permeable plasma membranes); type: cell-based; conditions: 1 µM, 24 h, necrotic cell count normalized to 0.1% DMSO, single replicates;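 further: compounds applied in DMEM high glucose with 0.1% FCS and 0.1% DMSO, necrotic HEK293T cells counted by red staining of cells whose plasma membranes had become permeable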
[2] = biological target: T1, ABL1 (Homo sapiens, UniProt P00519); experiment: Liability panel screening by DSF: ABL1; type: binding; conditions: DSF, 20 µM, n=2; read-out: Mean ΔTM ABL1
T1 construct: made in house
T1 sequence (P00519 whole entry, species assumed): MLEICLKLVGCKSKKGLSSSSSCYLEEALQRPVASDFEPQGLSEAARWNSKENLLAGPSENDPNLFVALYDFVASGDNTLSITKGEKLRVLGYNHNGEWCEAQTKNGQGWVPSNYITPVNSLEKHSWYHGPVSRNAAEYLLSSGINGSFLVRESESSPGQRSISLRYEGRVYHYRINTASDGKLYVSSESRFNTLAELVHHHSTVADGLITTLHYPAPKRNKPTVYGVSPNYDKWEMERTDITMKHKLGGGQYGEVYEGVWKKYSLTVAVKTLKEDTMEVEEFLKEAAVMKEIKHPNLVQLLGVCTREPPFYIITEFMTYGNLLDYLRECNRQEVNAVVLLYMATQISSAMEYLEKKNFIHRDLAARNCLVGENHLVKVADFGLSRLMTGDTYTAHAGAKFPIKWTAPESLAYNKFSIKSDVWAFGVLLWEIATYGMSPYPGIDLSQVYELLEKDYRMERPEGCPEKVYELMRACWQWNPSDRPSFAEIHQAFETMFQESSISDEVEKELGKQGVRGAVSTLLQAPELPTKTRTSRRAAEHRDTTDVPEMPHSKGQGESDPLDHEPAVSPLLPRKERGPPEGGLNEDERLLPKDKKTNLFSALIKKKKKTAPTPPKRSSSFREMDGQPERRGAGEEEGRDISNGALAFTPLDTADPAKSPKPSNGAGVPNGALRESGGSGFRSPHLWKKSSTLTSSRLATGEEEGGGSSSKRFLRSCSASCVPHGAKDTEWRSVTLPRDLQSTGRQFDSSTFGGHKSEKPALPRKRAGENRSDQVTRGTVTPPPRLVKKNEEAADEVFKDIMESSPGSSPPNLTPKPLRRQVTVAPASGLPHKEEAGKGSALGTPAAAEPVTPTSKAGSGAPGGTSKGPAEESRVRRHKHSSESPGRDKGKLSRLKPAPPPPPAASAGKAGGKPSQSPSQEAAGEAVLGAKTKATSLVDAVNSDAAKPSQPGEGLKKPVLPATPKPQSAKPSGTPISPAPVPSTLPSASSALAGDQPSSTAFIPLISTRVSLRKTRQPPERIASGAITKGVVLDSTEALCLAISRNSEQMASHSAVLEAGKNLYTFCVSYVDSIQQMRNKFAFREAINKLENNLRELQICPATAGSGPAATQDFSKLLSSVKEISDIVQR
Procedure, shortened: (§1)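 Thermal shift: in-house recombinant protein at 2 µM in 10 mM HEPES pH 7.5 with 500 mM NaCl, SYPRO Orange 1:1000, heated at 3 °C/min to 85 °C in technical duplicates. Tm is the Boltzmann inflection point, reported as ∆Tm in K.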

[3] = biological target: T2, AURKA (Homo sapiens, UniProt O14965); experiment: Liability panel screening by DSF: AURKA; type: binding; conditions: DSF, 20 µM, n=2; read-out: Mean ΔTM AURKA
T2 construct: made in house
T2 sequence (O14965 1-403): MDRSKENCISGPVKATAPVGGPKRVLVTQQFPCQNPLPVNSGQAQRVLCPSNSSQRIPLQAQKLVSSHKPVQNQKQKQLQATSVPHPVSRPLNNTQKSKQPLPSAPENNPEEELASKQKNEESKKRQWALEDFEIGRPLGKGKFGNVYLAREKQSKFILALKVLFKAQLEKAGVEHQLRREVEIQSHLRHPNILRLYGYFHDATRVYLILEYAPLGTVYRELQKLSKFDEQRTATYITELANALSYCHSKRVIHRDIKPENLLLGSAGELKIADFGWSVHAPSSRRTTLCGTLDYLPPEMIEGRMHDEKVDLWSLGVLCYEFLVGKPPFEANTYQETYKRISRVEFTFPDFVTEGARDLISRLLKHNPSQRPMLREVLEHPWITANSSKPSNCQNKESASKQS
Procedure, shortened: as §1

[4] = biological target: T3, CDK2 (Homo sapiens, UniProt P24941); experiment: Liability panel screening by DSF: CDK2; type: binding; conditions: DSF, 20 µM, n=2; read-out: Mean ΔTM CDK2
T3 construct: made in house
Procedure, shortened: as §1

[5] = biological target: T4, FGFR3 (Homo sapiens, UniProt P22607); experiment: Liability panel screening by DSF: FGFR3; type: binding; conditions: DSF, 20 µM, n=2; read-out: Mean ΔTM FGFR3
T4 construct: made in house
T4 sequence (P22607 23-806, species assumed): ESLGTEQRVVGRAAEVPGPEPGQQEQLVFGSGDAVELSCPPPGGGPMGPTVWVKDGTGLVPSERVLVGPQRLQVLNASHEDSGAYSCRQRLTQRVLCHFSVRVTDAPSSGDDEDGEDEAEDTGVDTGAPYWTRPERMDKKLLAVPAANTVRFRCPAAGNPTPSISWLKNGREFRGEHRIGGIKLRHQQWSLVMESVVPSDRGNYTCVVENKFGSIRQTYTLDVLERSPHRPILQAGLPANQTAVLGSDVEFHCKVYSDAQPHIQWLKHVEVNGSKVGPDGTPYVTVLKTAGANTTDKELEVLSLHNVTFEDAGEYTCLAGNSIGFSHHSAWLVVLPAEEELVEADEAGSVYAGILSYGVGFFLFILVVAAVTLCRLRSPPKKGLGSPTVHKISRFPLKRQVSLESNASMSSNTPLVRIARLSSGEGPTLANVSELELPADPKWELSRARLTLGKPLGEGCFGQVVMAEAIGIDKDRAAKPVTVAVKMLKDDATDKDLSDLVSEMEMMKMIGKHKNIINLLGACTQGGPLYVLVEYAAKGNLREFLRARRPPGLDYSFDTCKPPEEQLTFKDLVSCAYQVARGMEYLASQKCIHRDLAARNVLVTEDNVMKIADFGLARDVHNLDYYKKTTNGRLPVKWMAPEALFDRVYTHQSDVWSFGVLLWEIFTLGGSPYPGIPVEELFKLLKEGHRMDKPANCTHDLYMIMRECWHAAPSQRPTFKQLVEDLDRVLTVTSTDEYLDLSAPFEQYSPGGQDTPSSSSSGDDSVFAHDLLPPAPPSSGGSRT
Procedure, shortened: as §1

[6] = biological target: T5, GSK3B (Homo sapiens, UniProt P49841); experiment: Liability panel screening by DSF: GSK3B; type: binding; conditions: DSF, 20 µM, n=2; read-out: Mean ΔTM GSK3B
T5 construct: made in house
T5 sequence (P49841 whole entry, species assumed): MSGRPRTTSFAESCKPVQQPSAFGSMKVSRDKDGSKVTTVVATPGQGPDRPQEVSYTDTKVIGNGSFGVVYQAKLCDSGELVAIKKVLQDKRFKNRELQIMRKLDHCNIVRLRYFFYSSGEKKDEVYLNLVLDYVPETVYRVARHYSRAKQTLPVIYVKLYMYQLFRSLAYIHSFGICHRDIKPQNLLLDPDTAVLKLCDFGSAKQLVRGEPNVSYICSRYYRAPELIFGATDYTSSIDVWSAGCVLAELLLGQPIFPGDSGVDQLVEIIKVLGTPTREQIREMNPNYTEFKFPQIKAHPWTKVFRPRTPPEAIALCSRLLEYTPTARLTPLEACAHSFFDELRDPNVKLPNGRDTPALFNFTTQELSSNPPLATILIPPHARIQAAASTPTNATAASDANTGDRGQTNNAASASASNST

[7] = biological target: T6, BRD4 (Homo sapiens, UniProt O60885); experiment: Liability panel screening by DSF: BRD4; type: binding; conditions: DSF, 20 µM, n=2; read-out: Mean ΔTM BRD4
T6 construct: This panel comprised ten highly ligandable kinases and bromodomains; made in house
Procedure, shortened: as §1

[8] = biological target: T7, BRPF1 (Homo sapiens, UniProt P55201); experiment: Liability panel screening by DSF: BRPF1; type: binding; conditions: DSF, 20 µM, n=2; read-out: Mean ΔTM BRPF1
T7 construct: This panel comprised ten highly ligandable kinases and bromodomains; made in house
T7 sequence (P55201 628-732 limits assumed): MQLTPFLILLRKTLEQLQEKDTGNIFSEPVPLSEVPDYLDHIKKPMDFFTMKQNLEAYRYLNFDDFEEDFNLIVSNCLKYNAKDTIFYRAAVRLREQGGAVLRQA
Procedure, shortened: as §1

[9] = biological target: T8, CSNK1D (Homo sapiens, UniProt P48730); experiment: Liability panel screening by DSF: CSNK1D; type: binding; conditions: DSF, 20 µM, n=2; read-out: Mean ΔTM CSNK1D
T8 construct: made in house
T8 sequence (P48730 whole entry, species assumed): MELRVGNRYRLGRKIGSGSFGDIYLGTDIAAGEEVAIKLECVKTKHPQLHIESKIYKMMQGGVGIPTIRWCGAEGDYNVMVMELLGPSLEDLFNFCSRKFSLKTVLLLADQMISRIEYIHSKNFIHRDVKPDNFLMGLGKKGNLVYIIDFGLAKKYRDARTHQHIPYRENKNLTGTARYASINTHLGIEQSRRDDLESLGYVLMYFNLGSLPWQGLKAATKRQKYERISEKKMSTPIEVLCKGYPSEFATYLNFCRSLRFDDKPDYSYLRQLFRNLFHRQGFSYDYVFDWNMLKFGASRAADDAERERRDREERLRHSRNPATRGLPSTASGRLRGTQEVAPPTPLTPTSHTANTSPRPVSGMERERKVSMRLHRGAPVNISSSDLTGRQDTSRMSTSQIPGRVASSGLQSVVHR
Procedure, shortened: as §1

[10] = biological target: T9, MAPK1 (Homo sapiens, UniProt P28482); experiment: Liability panel screening by DSF: MAPK1; type: binding; conditions: DSF, 20 µM, n=2; read-out: Mean ΔTM MAPK1
T9 construct: made in house
T9 sequence (P28482 whole entry, species assumed): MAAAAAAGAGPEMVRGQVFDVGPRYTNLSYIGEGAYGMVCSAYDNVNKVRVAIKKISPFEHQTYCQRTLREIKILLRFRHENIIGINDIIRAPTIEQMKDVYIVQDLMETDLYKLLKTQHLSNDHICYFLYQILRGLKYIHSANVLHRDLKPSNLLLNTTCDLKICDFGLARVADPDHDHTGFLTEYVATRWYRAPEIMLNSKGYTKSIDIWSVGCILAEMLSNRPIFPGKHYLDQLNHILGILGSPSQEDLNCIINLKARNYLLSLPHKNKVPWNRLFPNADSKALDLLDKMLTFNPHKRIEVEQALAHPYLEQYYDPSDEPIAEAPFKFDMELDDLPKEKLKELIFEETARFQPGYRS
Procedure, shortened: as §1

[11] = system: NF-κB activity in HEK293 NF-κB reporter cells; experiment: NF-kB activity assay (GFP reporter, ionomycin/PMA); type: cell-based; conditions: for Mean NFκB response: n=3; for NF-κB activity (inflammatory response to ionomycin/PMA): HEK293 NF-κB reporter cells, compounds at recommended concentrations, imaged over 24 h, n = 3
Procedure, shortened: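 Reporter readout: GFP-expressing cells normalized to confluence, imaged every 90 min across 24 h after ionomycin (100 ng/mL)/PMA (10 ng/mL) stimulation of HEK293 cells pre-treated 4 h with compound (0.1% DMSO); triplicate independent experiments.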

[12] = system: ATF6 activity in Hela ATF6 reporter cells; experiment: Endoplasmic reticulum stress assay (ATF6 Renilla luciferase reporter, tunicamycin); type: cell-based; conditions: Homo sapiens, HeLa, 1 µM, single replicates n=1 to n=5; read-out: ER stress [rel. ATF6 activity]
Procedure, shortened: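 ER stress was induced by 100 ng/mL tunicamycin added 4 h after compound (0.1% DMSO) to HeLa ATF6 reporter cells. After 18 h more, Renilla luciferase signal was read and expressed relative to DMSO control, n=5 biological replicates.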

[13] = system: NR3A1 (ERα); conditions: cited from earlier work
[14] = system: NR3A2 (ERβ); conditions: cited from earlier work
[15] = known off-target outside the NR family at the recommended concentration; ref Supplementary Table 1 (superscript references); cited from earlier work
[16] = system: HEK293T cells; experiment: Cytotoxicity: metabolic activity (WST-8 / CCK-8 assay); conditions: 1 µM; HEK293T, 24 h; WST-8; normalized to 0.1% DMSO; single replicates
[17] = system: HEK293T cells; experiment: Cytotoxicity: growth-rate (change in confluence over 24 h); conditions: 1 µM, normalized to 0.1% DMSO control, single replicates (n=1...)
[18] = system: HEK293T cells; experiment: Cytotoxicity: apoptosis induction (caspase-3/7 DEVD fluorogenic DNA dye); conditions: 1 µM; HEK293T, 24 h; apoptotic cell count normalized to 0.1% DMSO; single replicates
[19] = biological target: T10, TRIM24 (Homo sapiens, UniProt O15164); experiment: Liability panel screening by DSF: TRIM24; type: binding; conditions: DSF, 20 µM, n=2; read-out: Mean ΔTM TRIM24
T10 construct: This panel comprised ten highly ligandable kinases and bromodomains; made in house
T10 sequence (O15164 899-1004 limits assumed): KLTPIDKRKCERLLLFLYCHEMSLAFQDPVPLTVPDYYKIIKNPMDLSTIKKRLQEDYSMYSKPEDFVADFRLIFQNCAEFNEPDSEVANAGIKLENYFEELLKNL
Procedure, shortened: as §1

## C[C@]12CC[C@@H]3c4ccc(O)cc4C[C@@H](CCCCCCCCC[S+]([O-])CCCC(F)(F)C(F)(F)F)[C@H]3[C@@H]1CC[C@@H]2O (stereo partly shown) [Fulvestrant]
[1]
  Necrosis induction [NI]: 0.62 and 0.70 and 0.56 and 0.98
[2]
  ΔTm at 20 µM: -4.09 °C
[3]
  ΔTm at 20 µM: -0.16 °C
[4]
  ΔTm at 20 µM: 0 °C
[5]
  ΔTm at 20 µM: -3.24 °C
[6]
  ΔTm at 20 µM: 0.72 °C
[7]
  ΔTm at 20 µM: -2.93 °C
[8]
  ΔTm at 20 µM: 0 °C
[9]
  ΔTm at 20 µM: -4.77 °C
[10]
  ΔTm at 20 µM: -12 °C
[11]; 1 µM, 1,5 h
  Mean NFκB response: 2679.37 GFP+-cells/confluence ∙ 1000
[11]; 1 µM, 4,5 h
  Mean NFκB response: 3148.36 GFP+-cells/confluence ∙ 1000
[11]; 1 µM, 7,5 h
  Mean NFκB response: 4671.22 GFP+-cells/confluence ∙ 1000
[11]; 1 µM, 10,5 h
  Mean NFκB response: 6295.62 GFP+-cells/confluence ∙ 1000
[11]; 1 µM, 13,5 h
  Mean NFκB response: 7325.42 GFP+-cells/confluence ∙ 1000
[11]; 1 µM, 16,6 h
  Mean NFκB response: 8293.33 GFP+-cells/confluence ∙ 1000
[11]; 1 µM, 19,5 h
  Mean NFκB response: 8696.67 GFP+-cells/confluence ∙ 1000
[11]; 1 µM, 22,5 h
  Mean NFκB response: 9540.00 GFP+-cells/confluence ∙ 1000
[11]; 1 µM, 3 h
  Mean NFκB response: 2744.06 GFP+-cells/confluence ∙ 1000
[11]; 1 µM, 6 h
  Mean NFκB response: 3642.03 GFP+-cells/confluence ∙ 1000
[11]; 1 µM, 9 h
  Mean NFκB response: 5613.40 GFP+-cells/confluence ∙ 1000
[11]; 1 µM, 12 h
  Mean NFκB response: 7011.92 GFP+-cells/confluence ∙ 1000
[11]; 1 µM, 15 h
  Mean NFκB response: 8097.95 GFP+-cells/confluence ∙ 1000
[11]; 1 µM, 18 h
  Mean NFκB response: 8436.67 GFP+-cells/confluence ∙ 1000
[11]; 1 µM, 21 h
  Mean NFκB response: 9413.33 GFP+-cells/confluence ∙ 1000
[11]; 1 µM, 24 h
  Mean NFκB response: 10080.00 GFP+-cells/confluence ∙ 1000
[11]
  NF-κB activity (inflammatory response to ionomycin/PMA): reducing the inflammatory response
[12]
  activity at 1 µM: 89%
[13]; ERα remaining (degrader), ref Supplementary Table 1
  rel. activity from literature, NR3A1 (ERα): % ERα remaining: 18%
[14]; (lit.), ref Supplementary Table 1, read-out: Potency [nM] IC50, NR3A2 (ERβ)
  IC50: 4 nM
[14]; rem. act. of estradiol
  rel. activity from literature, NR3A2 (ERβ): % rem. act. of estradiol: 9%
[15]
  Other off-target at recom. conc.: sEH
[16]
  Metabolic activity [MA]: 0.95 (2×) and 1.00 and 1.04 and 1.03 and 0.99 and 1.20 (2×)
[17]
  Growth rate [GR]: 0.67 and 2.29 and 0.97 and 0.95 and 0.64 and 0.78 and 0.76 and 0.84 and 1.55 and 3.07
[18]
  Apoptosis induction [AI]: 0.62 (2×) and 0.98 and 0.59 and 0.64 and 0.41

## Cc1c(-c2ccc(O)cc2)n(Cc2ccc(OCCN3CCCCCC3)cc2)c2ccc(O)cc12 [Bazedoxifene]
[1]
  Necrosis induction [NI]: 1.13 and 0.86 and 0.78 and 1.09
[2]
  ΔTm at 20 µM: -0.21 °C
[3]
  ΔTm at 20 µM: 0.09 °C
[4]
  ΔTm at 20 µM: -0.64 °C
[5]
  ΔTm at 20 µM: -0.69 °C
[6]
  ΔTm at 20 µM: 0.0162 °C
[7]
  ΔTm at 20 µM: 0.43 °C
[8]
  ΔTm at 20 µM: -0.07 °C
[9]
  ΔTm at 20 µM: 0.42 °C
[10]
  ΔTm at 20 µM: 0.08 °C
[19]
  ΔTm at 20 µM: -2.05 °C
[11]; 1 µM, 1,5 h
  Mean NFκB response: 2824.44 GFP+-cells/confluence ∙ 1000
[11]; 1 µM, 4,5 h
  Mean NFκB response: 3791.70 GFP+-cells/confluence ∙ 1000
[11]; 1 µM, 7,5 h
  Mean NFκB response: 7416.63 GFP+-cells/confluence ∙ 1000
[11]; 1 µM, 10,5 h
  Mean NFκB response: 14689.03 GFP+-cells/confluence ∙ 1000
[11]; 1 µM, 13,5 h
  Mean NFκB response: 19525.92 GFP+-cells/confluence ∙ 1000
[11]; 1 µM, 16,6 h
  Mean NFκB response: 23266.53 GFP+-cells/confluence ∙ 1000
[11]; 1 µM, 19,5 h
  Mean NFκB response: 26260.00 GFP+-cells/confluence ∙ 1000
[11]; 1 µM, 22,5 h
  Mean NFκB response: 28446.67 GFP+-cells/confluence ∙ 1000
[11]; 1 µM, 3 h
  Mean NFκB response: 3117.94 GFP+-cells/confluence ∙ 1000
[11]; 1 µM, 6 h
  Mean NFκB response: 5066.30 GFP+-cells/confluence ∙ 1000
[11]; 1 µM, 9 h
  Mean NFκB response: 11293.98 GFP+-cells/confluence ∙ 1000
[11]; 1 µM, 12 h
  Mean NFκB response: 17230.27 GFP+-cells/confluence ∙ 1000
[11]; 1 µM, 15 h
  Mean NFκB response: 21680.82 GFP+-cells/confluence ∙ 1000
[11]; 1 µM, 18 h
  Mean NFκB response: 24611.25 GFP+-cells/confluence ∙ 1000
[11]; 1 µM, 21 h
  Mean NFκB response: 27073.33 GFP+-cells/confluence ∙ 1000
[11]; 1 µM, 24 h
  Mean NFκB response: 29033.33 GFP+-cells/confluence ∙ 1000
[11]
  NF-κB activity (inflammatory response to ionomycin/PMA): reducing the inflammatory response
[12]
  activity at 1 µM: 100%
[13]; read-out: Potency [nM] EC50, NR3A1 (ERα)
  EC50: 26 ± 14 nM
[14]; (lit.), ref Supplementary Table 1, read-out: Potency [nM] EC50, NR3A2 (ERβ)
  EC50: 99 ± 53 nM
[18]
  Apoptosis induction [AI]: 0.65 and 1.17 and 0.76 and 1.01 and 0.89 and 1.49
